What was measured:
Format in all cases: functional
T47D = experiment: Antiproliferative activity against human T47D cells expressing estrogen receptor after 48 hrs by SRB assay
[1] = Antiproliferative activity against human MCF7/BUS cells expressing estrogen receptor after 48 hrs by SRB assay
MDA-MB-231 = experiment: Antiproliferative activity against estrogen receptor deficient human MDA-MB-231 cells after 48 hrs by SRB assay; settings: MDA-MB-231, 48 h
SK-BR-3 = experiment: Antiproliferative activity against estrogen receptor deficient human SKBR3 cells after 48 hrs by SRB assay; settings: SK-BR-3, 48 h
MCF7 = experiment: Antiproliferative activity against human MCF7 cells expressing estrogen receptor after 48 hrs by SRB assay; settings: MCF7, 48 h

Row | Compound | GI50 (T47D) [µM] | GI50 [1] [µM] | GI50 (MDA-MB-231) [µM] | GI50 (SK-BR-3) [µM] | GI50 (MCF7) [µM]
1 | CCO[C@@]12C[C@H]3[C@@H](C[C@@H](O)[C@@]4(Cl)CC=CC(=O)[C@]34C)[C@@H]3CC[C@@](O)([C@H](C)[C@@H]([C@@H]4O[C@H](O)[C@@]5(C)O[C@@]45C)O1)[C@]32C | 13 | 5.1 | 10 | 3.4 | 3.9
2 | CC1=C(C)[C@H]([C@H]2O[C@@]3(O)C[C@H]4[C@@H](C[C@@H](O)[C@@]5(O)CC=CC(=O)[C@]45C)[C@@H]4CC[C@@](O)([C@@H]2C)[C@]43C)OC1=O [JABOROTETROL] | > 100 | > 100 | > 100 | > 100 | > 100
3 | CC1=C(C)C(=O)O[C@@H]([C@](C)(O)[C@]2(O)CC[C@@]3(O)[C@@H]4C[C@H]5O[C@]56[C@@H](O)C=CC(=O)[C@]6(C)[C@H]4CC[C@]23C)C1 | 2.2 | 1.1 | 2.1 | 1.7 | 1
4 | CC1=C(C)[C@H]([C@H]2O[C@@]3(O)C[C@@H]4c5c(O)cccc5[C@H](O)C[C@H]4[C@@H]4CC[C@@](O)([C@@H]2C)[C@]43C)OC1=O [JABOROSALACTONE 45] | > 100 | > 100 | > 100 | > 100 | > 100
5 | CC[C@@]1(O)C(=O)OCc2c1cc1n(c2=O)Cc2cc3ccccc3nc2-1 [CAMPTOTHECIN] | 2 | 0.21 | 1.3 | 0.15 | 0.28
6 | CO[C@@]12C[C@@H]3c4c(O)cccc4[C@H](O)C[C@H]3[C@@H]3CC[C@@](O)([C@H](C)[C@@H]([C@@H]4OC(=O)C(C)=C4C)O1)[C@]32C | > 100 | > 100 | > 100 | > 100 | > 100
7 | C[C@]12CC[C@H]3C(=C1[C@H]1C[C@@]2(O)[C@](C)([C@H]2C[C@]4(C)O[C@]4(C)[C@H](O)O2)C1)C[C@@H](O)[C@@]1(O)CC=CC(=O)[C@]31C [JABOROSALACTOL20] | > 100 | > 100 | > 100 | > 100 | > 100
8 | C[C@@H](C1=CC(=O)[C@H]2[C@@H]3C[C@H]4O[C@]45CC=CC(=O)[C@]5(C)[C@H]3CC[C@]12C)C1C[C@]2(C)O[C@]2(C)[C@H](O)O1 (stereo not given in full) [SALPICHROLIDE D] | 17 | 13 | 21 | 21 | 22
9 | CC1=C(C)C(=O)O[C@@H]([C@H]2CO[C@@]3(O)C[C@H]4[C@@H](C[C@H]5O[C@]56CC=CC(=O)[C@]46C)[C@@H]4CC[C@]2(O)[C@]43C)C1 [JABOROSALACTONE] | 4.1 | 2.8 | 3.4 | 2.6 | 2.9
10 | CC1=C(C)[C@H]([C@H]2O[C@@]3(O)C[C@H]4[C@@H](C[C@H]5O[C@]56CC=CC(=O)[C@]46C)[C@@H]4CC[C@@](O)([C@@H]2C)[C@]43C)OC1=O [TRECHONOLIDE A] | 4.3 | 3.1 | 6.3 | 1.9 | 3.9
11 | CC1=C(C)C(=O)O[C@]2(C1)O[C@@]1(O)C[C@H]3[C@@H](C[C@H]4O[C@]45CC=CC(=O)[C@]35C)[C@@H]3CC[C@@](O)([C@@H]2C)[C@]31C [JABOROSALACTONE 46] | 3.7 | 2.9 | 3.5 | 2.5 | 2.8
12 | CCO[C@@]12C[C@H]3[C@@H](C[C@@H](O)[C@@]4(Cl)CC=CC(=O)[C@]34C)[C@@H]3CC[C@@](O)([C@H](C)[C@@H]([C@@H]4OC(=O)C(C)=C4C)O1)[C@]32C [12-O-ETHYLJABOROSALACTONE 42] | 3.9 | 3 | 3.7 | 2.5 | 3
13 | C[C@@H]1[C@@H]([C@@H]2O[C@H](O)[C@@]3(C)O[C@@]23C)O[C@@]2(O)C[C@H]3[C@@H](C[C@H]4O[C@]45CC=CC(=O)[C@]35C)[C@@H]3CC[C@]1(O)[C@]32C [JABOROSALACTOL 24] | 6.5 | 2.6 | 8.7 | 2.3 | 3.6
14 | CC1=C(C)[C@]2(OC1=O)C(=O)C(C)=C1CC[C@H]3[C@@H]4C[C@H]5O[C@]56CC=CC(=O)[C@]6(C)[C@H]4C[C@@]2(O)[C@]13C [JABOROSALACTONE 1] | 3.4 | 3.3 | 2.5 | 2 | 3.2
15 | O=c1[nH]cc(F)c(=O)[nH]1 [FLUOROURACIL] | 47 | 6.2 | 54 | 3 | 8.3
16 | CC1=C(C)C(=O)O[C@@H]([C@H]2CO[C@@]3(O)C[C@H]4[C@@H](C[C@H]5O[C@]56CCCC(=O)[C@]46C)[C@@H]4CC[C@]2(O)[C@]43C)C1 [JABOROSALACTONE 39] | 38 | 29 | 35 | 34 | 25
17 | CC1=C(C)[C@]2(OC1=O)[C@H](O)[C@@H](C)[C@]1(O)CC[C@H]3[C@@H]4CC=C5CC=CC(=O)[C@]5(C)[C@H]4C[C@@]2(O)[C@@]31C [JABOROSALACTONE P] | 61 | 33 | 49 | 29 | 35
18 | CO[C@@]12C[C@H]3[C@@H](C[C@H]4O[C@]45CC=CC(=O)[C@]35C)[C@@H]3CC[C@@](O)([C@@H]([C@H]4CC(C)=C(C)C(=O)O4)CO1)[C@]32C [12-O-METHYLJABOROSALACTONE 38] | 3.9 | 2.7 | 2.8 | 2 | 2.9
19 | C[C@@H](c1cc(O)c2c(c1)CC[C@H]1[C@H]2C[C@@H]2O[C@@]23CC=CC(=O)[C@]13C)[C@@H]1C[C@@H]2O[C@@H]2[C@H](O)O1 [SALPICHROLIDE G] | 14 | 5.7 | 14 | 3.4 | 5.1
20 | CC1=C(C)[C@H]([C@H]2O[C@@]3(O)C[C@H]4[C@@H](C[C@@H](O)[C@@]5(Cl)CC=CC(=O)[C@]45C)[C@@H]4CC[C@@](O)([C@@H]2C)[C@]43C)OC1=O [JABOROSALACTONE 42] | 3.5 | 2.6 | 3.2 | 2.5 | 2.4
21 | C[C@@H]1[C@@H]([C@@H]2O[C@H](O)[C@@]3(C)O[C@@]23C)O[C@@]2(O)C[C@H]3[C@@H](CC=C4CC=CC(=O)[C@@]43C)[C@@H]3CC[C@]1(O)[C@]32C [JABOROSALACTOL] | 30 | 18 | 19 | 18 | 14
22 | CC1=C(C)C(=O)O[C@@H]([C@](C)(O)[C@]2(O)CC[C@@]3(O)[C@@H]4C[C@H]5O[C@]56CC=CC(=O)[C@]6(C)[C@H]4CC[C@]23C)C1 [WITHANOLIDE E] | 0.16 | 0.42 | 0.24 | 0.71 | 0.31
